Columns and labels:
Type in all cases: in vivo
[1] = tested on: Convolvulus; test: Pre-emergence test, greenhouse; conditions: terbutylazin 200 g/ha, after 26 days
Source text: (§1) A synergistic effect is always obtained when the herbicidal action of the combination of compound I and 2.1 to 2.33 is greater than the sum of the action of the individual herbicides.
(§2) The expected herbicidal action We for a given combination of two herbicides can be calculated as follows (q.v. COLBY, S. R., “Calculating synergistic and antagonistic response of herbicide combinations”, Weeds 15, pages 20-22, 1967):
(§3) If the value actually observed is higher than the expected value We, then there is synergism.
(§4) The test plants are sown in plastic pots in standard soil under greenhouse conditions. Directly after sowing, the test substances are applied in an aqueous suspension (500 l water/ha). The test plants are then further cultivated in the greenhouse under optimum conditions. The rates of application depend on the optimum dosages determined under field conditions and greenhouse conditions. Evaluation of the tests is made after 26 days (% activity, 100% plant perished, 0%=no phytotoxic effect).

[2] = tested on: Xanthium; test: Pre-emergence test, greenhouse; conditions: terbutylazin 200 g/ha, after 26 days
Source text: as §1, §2, §3, §4

[3] = tested on: Ipomoea; test: Pre-emergence test, greenhouse; conditions: terbutylazin 200 g/ha, after 26 days
Source text: as §1, §2, §3, §4

[4] = tested on: Polygonum; test: Pre-emergence test, greenhouse; conditions: terbutylazin 200 g/ha, after 26 days
Source text: as §1, §2, §3, §4

[5] = tested on: maize Dk 261; test: Postemergence test, greenhouse; conditions: halosulfuron 100 g/ha, after 20 days
Source text: as §1, §2, §3
(§5) The test plants are grown under greenhouse conditions in plastic pots until reaching the 2-3 leaf stage. Standard soil is used, as the substrate for cultivation. At the 2-3 leaf stage, the herbicides are applied to the test plants on their own and in a mixture. Application is effected in the form of an aqueous suspension of the test substances in 500 1 water/ha. The rates of application depend on the optimum dosages determined under field conditions and greenhouse conditions. Evaluation of the tests is made after 20 days (% activity, 100%=plant perished, 0%=no phytotoxic effect).

[6] = tested on: Digitaria; test: Postemergence test, greenhouse; conditions: halosulfuron 100 g/ha, after 20 days
Source text: as §1, §2, §3, §5

Compound: CCNc1nc(Cl)nc(NC(C)(C)C)n1 [terbutylazin]
- % activity (herbicidal action) [1]: 80%
- % activity (herbicidal action) [2]: 0%
- % activity (herbicidal action) [3]: 30%
- % activity (herbicidal action) [4]: 60%

Compound: COc1cc(OC)nc(NC(=O)NS(=O)(=O)c2c(C(=O)O)c(Cl)nn2C)n1 [halosulfuron]
- % activity (herbicidal action) [5]: 5%
- % activity (herbicidal action) [6]: 25%
